PubChem BioAssay (NCI)
Where “and” joins values, the source holds several entries; their conditions need not be identical. Equal entries are not always repeated.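 Following 48 hours of exposure in 96-well plates, responses at five concentrations were used to interpolate endpoints linearly. GI50 = concentration required for 50% inhibition of growth. At the TGI there is no net growth.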

What was measured:
Assay in all cases: growth of human tumour cells (NCI), 48 h
MALME-3M melanoma = system: MALME-3M melanoma
OVCAR-3 ovarian = system: OVCAR-3 ovarian
TK-10 renal = system: TK-10 renal
CAKI-1 renal = system: CAKI-1 renal
UO-31 renal = system: UO-31 renal
HS 578T breast = system: HS 578T breast
HL-60(TB) leukemia = system: HL-60(TB) leukemia
NCI-H226 lung = system: NCI-H226 lung
HT29 colon = system: HT29 colon
SK-MEL-2 melanoma = system: SK-MEL-2 melanoma

SMILES	GI50 (MALME-3M melanoma)	TGI (MALME-3M melanoma)	GI50 (OVCAR-3 ovarian)	TGI (OVCAR-3 ovarian)	GI50 (TK-10 renal)	TGI (TK-10 renal)	GI50 (CAKI-1 renal)	TGI (CAKI-1 renal)	GI50 (UO-31 renal)	TGI (UO-31 renal)	GI50 (HS 578T breast)	TGI (HS 578T breast)	GI50 (HL-60(TB) leukemia)	TGI (HL-60(TB) leukemia)	GI50 (NCI-H226 lung)	TGI (NCI-H226 lung)	GI50 (HT29 colon)	TGI (HT29 colon)	GI50 (SK-MEL-2 melanoma)	TGI (SK-MEL-2 melanoma)
Cc1cc2c3ccccc3ccc2[n+]2ccccc12	0.657 µM	3.45 µM	2.28 µM	11.8 µM	19.7 µM	> 86.8 µM	> 28 µM	> 100 µM	3.73 µM	> 100 µM	2.6 µM	17.2 µM	14.3 µM	46.3 µM	3.14 µM	23.7 µM	9.19 µM	41.1 µM	6.26 µM	22.7 µM
Cc1ccc2c(Nc3cccc(Cl)c3F)ncc(NC(=O)c3csc4c(N)ncnc34)c2c1	–	–	> 100 µM	> 100 µM	> 100 µM	> 100 µM	0.734 µM	> 100 µM	0.291 µM	> 100 µM	> 100 µM	> 100 µM	0.0656 µM	> 100 µM	> 100 µM	> 100 µM	0.0779 µM	> 100 µM	0.0856 µM	> 100 µM
O=c1oc2ccc(Cl)cc2c(=O)n1-c1cc(C(F)(F)F)cc(C(F)(F)F)c1	0.222 µM	0.696 µM	0.276 µM	10.7 µM	0.395 µM	11 µM	0.198 µM	0.689 µM	0.238 µM	0.831 µM	0.239 µM	0.987 µM	0.231 µM	0.553 µM	0.305 µM	2.21 µM	2.12 µM	14.6 µM	0.236 µM	0.846 µM
COC(=O)c1ccc2c(c1)C(=O)c1c-2n(CCCN)c(=O)c2cc([N+](=O)[O-])ccc12	0.038 µM	1.36 µM	0.242 µM	1.55 µM	1.05 µM	2.92 µM	< 0.01 µM	1.36 µM	< 0.0137 µM	< 0.0405 µM	0.422 µM	1.15 µM	< 0.0194 µM	1.39 µM	0.102 µM	1.67 µM	< 0.0236 µM	0.436 µM	–	0.519 µM
O=Cc1ccc(Oc2c3ccccc3nc3occc23)cc1	–	–	2.59 µM	11.3 µM	3.83 µM	21 µM	12.7 µM	30.2 µM	26.4 µM	> 100 µM	13.4 µM	51.6 µM	22.9 µM	56.9 µM	–	–	23.1 µM	61.9 µM	–	–
O=C1OC(C2=CC(=O)c3ccccc3C2=O)C(Cl)=C1Cl (stereo unspecified)	–	57.9 µM	–	> 100 µM	–	> 100 µM	–	> 100 µM	–	31.8 µM	–	> 100 µM	–	> 100 µM	–	95.3 µM	–	> 100 µM	–	35.4 µM
Nc1c(C(=O)c2cccc(C#CCN3CCOCC3)c2)cnn1-c1ccc(F)cc1	> 12.4 µM	> 25 µM	> 23.1 µM	> 25 µM	> 23.4 µM	> 25 µM	> 16 µM	> 25 µM	> 25 µM	> 25 µM	> 25 µM	> 25 µM	16.4 µM	> 25 µM	> 20.4 µM	> 25 µM	10.9 µM	> 25 µM	> 15.3 µM	> 25 µM
CC1(C)CC(OCCCC[P+](c2ccccc2)(c2ccccc2)c2ccccc2)CC(C)(C)N1O	0.317 µM	1.07 µM	0.241 µM	0.871 µM	0.361 µM	2.36 µM	1.19 µM	4.01 µM	2.66 µM	8.29 µM	0.229 µM	1.03 µM	0.125 µM	0.421 µM	0.472 µM	10.6 µM	0.34 µM	7.26 µM	0.272 µM	0.641 µM
O=C(O)CCCSc1nc2ccccc2s1	–	> 100 µM	–	> 100 µM	–	> 100 µM	–	> 100 µM	–	> 100 µM	–	> 100 µM	–	> 100 µM	–	> 100 µM	–	> 100 µM	–	> 100 µM
Nc1ccn(C2CC(O)C(CO)O2)c(=O)n1 (stereo unspecified)	> 5000 µM	> 5000 µM	> 5000 µM	> 5000 µM	> 5000 µM	> 5000 µM	> 5000 µM	> 5000 µM	> 5000 µM	> 5000 µM	> 5000 µM	> 5000 µM	> 5000 µM	> 5000 µM	> 5000 µM	> 5000 µM	> 5000 µM	> 5000 µM	> 5000 µM	> 5000 µM
CCCCCCCCCCCC[n+]1ccccc1	1.18 µM	3.41 µM	0.835 µM	2.88 µM	0.941 µM	2.67 µM	–	–	1.72 µM	11 µM	1.87 µM	5.87 µM	0.422 µM	1.99 µM	1.44 µM	8.83 µM	0.381 µM	5.47 µM	1.44 µM	3.73 µM
CC1(C)CC(=O)c2c(ccc(C(=O)C[C@H](N)CO)c2N)O1	> 33.3 µM	> 33.3 µM	–	17.5 µM and > 33.3 µM	> 17.5 µM and 5.99 µM	> 17.5 µM and 28.8 µM	3.27 µM and 0.447 µM	17.5 µM and 6.03 µM	1.73 µM and 0.409 µM	17.5 µM and > 33.3 µM	> 33.3 µM	> 33.3 µM	8.45 µM and 6.34 µM	17.5 µM and > 33.3 µM	–	17.5 µM and 23.7 µM	–	17.5 µM and > 33.3 µM	12.5 µM and 5.2 µM	17.5 µM and > 33.3 µM
CN1CCN(Cc2ccc(NC(=O)c3nc4ccc5[nH]ncc5c4c4c3CCC4)cc2C(F)(F)F)CC1	0.8 µM	1.52 µM	0.904 µM	1.68 µM	0.884 µM	1.65 µM	0.815 µM	1.56 µM	0.728 µM	1.38 µM	0.833 µM	1.65 µM	1.06 µM	2.28 µM	2.23 µM	11.3 µM	1.02 µM	2.08 µM	1.16 µM	2.49 µM
Cc1ncc(C(=O)Nc2ccc(CN3CCN(C)CC3)c(C(F)(F)F)c2)cc1C#Cc1cnc(N)c2ncccc12	< 0.0177 µM	0.135 µM	1.32 µM	4.96 µM	0.318 µM	2.13 µM	0.0719 µM	1.46 µM	0.0596 µM	0.775 µM	0.23 µM	4.69 µM	0.164 µM	7.67 µM	0.293 µM	24.3 µM	0.0435 µM	2.08 µM	0.0783 µM	0.747 µM
